Source: patent publication EP4268823A1, “COMPOUND FOR TREATING NEUROINFLAMMATION” (Universitätsklinikum Hamburg-Eppendorf, priority 2022, dated 2023)

What was measured:
[1] = tested on: glutathione; experiment: GSH-Glo glutathione measurement after glutamate; format: cell-based, mouse; details: primary cortical neurons, glutamate 2 hours, UNC0642-treated
Protocol: (§1) For primary cortical cultures pregnant C57BL/6J, or G9afl/fl;Snap25-Cre mice were euthanized. To ensure comparability between genotypes, only embryos from heterozygous breeding's were used. Brainstem tissue of each embryo for genotyping was reserved and cortices were isolated, dissociated and cells were plated at a density of 1 × 10^5 cells per 1 cm^2 on poly-D-lysine-coated wells (5 µM Sigma-Aldrich, cat. no. A-003-M). If not stated otherwise, cells were maintained in neurobasal plus medium (supplemented with B27 plus, penicillin, streptomycin and L-glutamine; Gibco, cat. no. A3582901) at 37°C, 5% CO^2 and a relative humidity of 98%, and treated with 1 µM cytarabine (Sigma-Aldrich, cat. no. BP383) at 1 day in vitro (div) to inhibit glial cell proliferation. If no cytarabine was applied cells were maintained in PNBM medium (supplemented with neural cell survival factor, gentamycin and L-glutamine; Lonza). Throughout, cultures after 14-23 div were used for experiments. G9a inhibitor UNC0642 was used in a concentration of 1 µM and cultures were pre-treated 24 hours before further experimental procedures.
GSH-Glo Glutathione assay (Promega) was used as described by the manufacturer. Primary cortical neurons were cultured in a 96-well plate and stimulated with glutamate for 2 hours. […] After 15 min, luminescence was detected at a Spark 10M multimode microplate reader (Tecan).

[2] = molecular target: T1, G9a (Mus musculus, UniProt Q9Z148); experiment: H3K9me2 / G9a immunofluorescence staining in primary neuronal cultures; format: cell-based
T1 construct: UNC0642 pre-treated primary neuronal cultures compared to respective controls; endogenous in cells; host or cells: primary mouse cortical neuronal cultures (C57BL/6J embryos)
T1 sequence (Q9Z148 1-1263): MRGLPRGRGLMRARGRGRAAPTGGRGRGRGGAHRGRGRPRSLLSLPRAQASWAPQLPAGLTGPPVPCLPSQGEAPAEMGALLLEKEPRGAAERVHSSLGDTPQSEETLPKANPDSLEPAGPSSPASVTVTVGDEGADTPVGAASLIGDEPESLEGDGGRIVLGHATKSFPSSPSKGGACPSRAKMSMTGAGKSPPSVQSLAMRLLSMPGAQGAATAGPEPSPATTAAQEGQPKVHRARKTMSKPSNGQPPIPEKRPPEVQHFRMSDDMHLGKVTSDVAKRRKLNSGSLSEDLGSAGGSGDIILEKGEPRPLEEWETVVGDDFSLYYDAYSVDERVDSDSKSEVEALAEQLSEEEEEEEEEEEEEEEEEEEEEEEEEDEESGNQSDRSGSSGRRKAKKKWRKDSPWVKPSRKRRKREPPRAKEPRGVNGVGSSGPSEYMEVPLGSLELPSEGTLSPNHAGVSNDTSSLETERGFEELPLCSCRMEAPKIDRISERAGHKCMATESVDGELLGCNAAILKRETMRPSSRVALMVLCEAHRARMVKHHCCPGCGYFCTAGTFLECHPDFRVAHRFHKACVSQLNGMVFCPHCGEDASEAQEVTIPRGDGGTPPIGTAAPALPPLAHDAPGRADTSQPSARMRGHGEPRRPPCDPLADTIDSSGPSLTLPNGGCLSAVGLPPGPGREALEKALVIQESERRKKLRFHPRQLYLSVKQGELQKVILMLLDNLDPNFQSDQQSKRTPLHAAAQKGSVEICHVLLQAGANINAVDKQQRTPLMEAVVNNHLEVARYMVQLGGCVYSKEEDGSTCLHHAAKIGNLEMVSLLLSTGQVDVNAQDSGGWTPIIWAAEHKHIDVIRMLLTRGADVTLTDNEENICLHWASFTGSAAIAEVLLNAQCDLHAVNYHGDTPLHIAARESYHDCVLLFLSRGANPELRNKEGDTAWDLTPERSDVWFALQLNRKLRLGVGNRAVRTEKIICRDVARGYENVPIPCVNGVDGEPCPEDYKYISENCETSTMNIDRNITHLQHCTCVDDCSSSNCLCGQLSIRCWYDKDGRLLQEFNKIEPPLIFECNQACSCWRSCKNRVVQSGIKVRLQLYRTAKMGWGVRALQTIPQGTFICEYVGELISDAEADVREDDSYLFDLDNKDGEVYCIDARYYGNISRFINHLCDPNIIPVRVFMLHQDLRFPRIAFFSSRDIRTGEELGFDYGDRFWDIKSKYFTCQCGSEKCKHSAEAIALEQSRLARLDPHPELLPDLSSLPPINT
Protocol: as §1
Immunocytochemistry was performed as described previously (15). HiPSC-neurons and mouse neurons were cultivated on 12 mm diameter cover slips or on 96-well plates suited for confocal microscopy, fixed with 4% paraformaldehyde (PFA), incubated in 10% normal donkey's serum (NDS) containing 0.25% Triton X-100, and subsequently immunolabeling was performed. Immunostainings were analyzed with a Zeiss LSM 700 confocal microscope.

[3] = primary neuronal cultures, 1 µM UNC0642 pre-treated 24 hours, vs. DMSO

COc1cc2c(NC3CCN(C(C)C)CC3)nc(N3CCC(F)(F)CC3)nc2cc1OCCCN1CCCC1 [UNC0642, 2-(4,4-difluoropiperidin-1-yl)-6-methoxy-N-[1-(propan-2-yl)piperidin-4-yl]-7-[3-(pyrrolidin-1-yl)propoxy]quinazolin-4-amine]
glutathione levels [1]: partial rescue of glutathione levels
upregulation of H3K9me2 in response to ferroptosis induction ([2]; erastin or RSL3, with UNC0642): effectively prevented
upregulation of H3K9me2 by hydrogen peroxide treatment ([2]; hydrogen peroxide stimulation, UNC0642 treatment): still able to overcome this effect
G9a protein level [2, 3]: did not change
reduction of H3K9me2 signal [2, 3]: 45%
